What was measured:
Assay type in all cases: binding
[1] = molecular target: T1, αβ heterodimer of HsIDH3 (mutant form αMβ) (Homo sapiens, UniProt O43837+P50213, P50213:Q166A); experiment: biolayer interferometry, biotinylated protein on streptavidin sensor
T1 construct: gene IDH3A; coexpressed alpha and beta-TEV-His6 (pQlinkN), E. coli BL21(DE3) Codon-Plus, His6 tag cleaved with TEV; 1:1 heterodimer, mutant is heterotetramer (αMβ)2 of 131-149 kDa

[2] = molecular target: T1, αβ heterodimer of HsIDH3 (mutant form αMβ); experiment: X-ray crystal structure, […] Å; conditions: Mg2+ at active site; ADP at pseudo-allosteric site of beta subunit
[3] = molecular target: T2, αγ heterodimer of HsIDH3 (mutant form αMγ) (Homo sapiens, UniProt P50213+P51553, P50213:Q166A); experiment: X-ray crystal structure, […] Å; conditions: allosteric site of gamma subunit
T2 construct: gene IDH3A; coexpressed alpha and gamma-TEV-His6 (pQlinkN), E. coli BL21(DE3) Codon-Plus, His6 tag cleaved with TEV; 1:1 heterodimer, mutant is heterotetramer (αMγ)2 of 131-149 kDa
T2 sequence (P50213 28-366 Q166A): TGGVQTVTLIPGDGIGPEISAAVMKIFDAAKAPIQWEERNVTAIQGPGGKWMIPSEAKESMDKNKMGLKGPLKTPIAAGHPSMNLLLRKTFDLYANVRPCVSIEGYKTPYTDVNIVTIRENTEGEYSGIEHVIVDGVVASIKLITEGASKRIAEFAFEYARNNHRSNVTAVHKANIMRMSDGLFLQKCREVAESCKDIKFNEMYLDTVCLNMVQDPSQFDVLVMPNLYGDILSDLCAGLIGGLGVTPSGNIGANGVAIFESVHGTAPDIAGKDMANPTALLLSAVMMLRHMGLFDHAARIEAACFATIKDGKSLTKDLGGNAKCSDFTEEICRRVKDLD
T2 sequence (P51553 40-393): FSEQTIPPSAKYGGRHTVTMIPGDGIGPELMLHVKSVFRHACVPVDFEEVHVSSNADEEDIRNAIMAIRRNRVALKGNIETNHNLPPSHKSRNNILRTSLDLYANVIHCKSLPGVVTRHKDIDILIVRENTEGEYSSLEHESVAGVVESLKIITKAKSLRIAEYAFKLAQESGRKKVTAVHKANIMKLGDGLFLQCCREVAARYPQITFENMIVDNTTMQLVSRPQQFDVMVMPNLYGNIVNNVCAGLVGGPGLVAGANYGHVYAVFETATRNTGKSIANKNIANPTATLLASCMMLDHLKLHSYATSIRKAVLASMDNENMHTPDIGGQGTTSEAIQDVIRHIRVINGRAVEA

T1 sequence (O43837 35-385 limits assumed, one chain of several): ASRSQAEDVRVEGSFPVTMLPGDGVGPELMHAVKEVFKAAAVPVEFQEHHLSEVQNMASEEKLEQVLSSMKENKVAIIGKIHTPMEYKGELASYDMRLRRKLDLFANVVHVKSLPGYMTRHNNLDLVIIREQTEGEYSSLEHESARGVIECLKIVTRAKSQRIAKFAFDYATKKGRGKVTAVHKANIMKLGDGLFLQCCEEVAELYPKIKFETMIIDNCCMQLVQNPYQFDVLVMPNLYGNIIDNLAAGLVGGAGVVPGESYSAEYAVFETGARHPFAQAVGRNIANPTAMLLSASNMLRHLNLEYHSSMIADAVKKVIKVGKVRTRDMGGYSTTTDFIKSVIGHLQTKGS

Row | SMILES | Kd [1] [µM] | X-ray crystal structure, 2.70 Å [2] | X-ray crystal structure, 2.50 Å [3]
1 | Nc1ncnc2c1ncn2[C@@H]1O[C@H](COP(=O)(O)OP(=O)(O)O)[C@@H](O)[C@H]1O [ADP] | 522 ± 10 | an ADP bound at the pseudo-allosteric site in the β subunit | –
2 | O=C(O)CC(O)(CC(=O)O)C(=O)O [CIT] | – | – | there is a CIT bound at the allosteric site in the γ subunit
